Results on ten molecules are retold here after paper PMC6021390, “A promiscuous cytochrome P450 aromatic O-demethylase for lignin bioconversion” (Nature Communications, 2018).

“Also recorded” adds a separate entry of the source. Like-named read-outs stand apart in the source and are kept apart here.

Data set [1] deals with T1, GcoAB (Amycolatopsis sp., UniProt P0DPQ7).
T1 sequence (P0DPQ7 1-407): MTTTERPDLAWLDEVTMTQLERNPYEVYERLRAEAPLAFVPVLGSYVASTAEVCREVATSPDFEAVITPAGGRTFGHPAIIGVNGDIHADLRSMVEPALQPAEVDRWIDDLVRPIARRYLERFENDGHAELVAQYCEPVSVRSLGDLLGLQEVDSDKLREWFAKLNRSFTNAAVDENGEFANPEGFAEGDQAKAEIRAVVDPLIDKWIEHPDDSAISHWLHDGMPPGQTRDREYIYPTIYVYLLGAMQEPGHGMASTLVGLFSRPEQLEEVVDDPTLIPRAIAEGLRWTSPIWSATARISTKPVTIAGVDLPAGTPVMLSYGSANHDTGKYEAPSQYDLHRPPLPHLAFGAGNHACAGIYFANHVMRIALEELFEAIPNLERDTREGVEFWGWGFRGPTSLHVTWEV
T1 sequence (P0DPQ8 1-334 partner): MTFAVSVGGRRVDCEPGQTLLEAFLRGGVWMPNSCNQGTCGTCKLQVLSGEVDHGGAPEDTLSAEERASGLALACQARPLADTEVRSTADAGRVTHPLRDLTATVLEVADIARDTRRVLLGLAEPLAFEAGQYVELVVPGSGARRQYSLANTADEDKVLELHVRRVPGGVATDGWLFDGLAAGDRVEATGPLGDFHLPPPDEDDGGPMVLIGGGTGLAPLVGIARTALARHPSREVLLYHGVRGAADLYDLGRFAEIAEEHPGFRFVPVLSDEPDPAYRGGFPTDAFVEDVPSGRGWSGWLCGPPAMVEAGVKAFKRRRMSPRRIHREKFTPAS
In words: Aldehyde product determination (tryptophan assay for formaldehyde, dehydrogenase assay for acetaldehyde) versus NADH consumed. The class given is biochemical, Amycolatopsis sp. ATCC 39116. On the set-up: GST (N, cleaved yes); made in house; host or cells: E. coli Rosetta 2 (DE3). To be noted: formaldehyde (acetaldehyde for guaethol), saturating substrate, 300 μM NADH, 0.2 μM GcoAB. The text has this: For the quantification of formaldehyde (demethylation) or acetaldehyde (de-ethylation) production, the reaction was monitored via UV/vis or fluorescence (in the case of vanillin) using the same set of conditions as outlined above for specific activity determination. After eight minutes, aliquots of the sample were removed and carried onto the respective aldehyde detection assay. For reactions that produced formaldehyde (e.g., all substrates except guaethol), a colorimetric tryptophan assay was used, described previously. Briefly, 200 µL of the reaction was quenched by adding 200 µL of 0.1% tryptophan solution in 50% ethanol, 200 µL 90% sulfuric acid and 40 µL of 1% FeCl3. The solution was then incubated in a heating block for 90 min at 70 °C. After cooling, the absorbance was read at 575 nm and the [formaldehyde] calculated by comparing to a standard curve made with 0–320 µM formaldehyde. A reaction with just the assay components was treated in the same manner as the reaction samples and used as a baseline. Control reactions included everything but GcoA/B, catalase, and substrate. Reported values are the average of ≥3 measurements.
[Acetaldehyde] produced during the dealkylation of guaethol was also determined by using a colorimetric assay and a generated acetaldehyde standard curve. A kit from BioAssays was used. Briefly, 20 µL of the reacted sample was transferred to a 96-well plate and 80 µL of the working reagent, consisting of NAD/MTT and aldehyde dehydrogenase, was added. The reaction was incubated for 30 min at room temperature and the absorbance read at 565 nm. Aldehyde dehydrogenase and NAD react with acetaldehyde to produce acetic acid and NADH. […] Control reactions included samples without substrate and/or aldehyde dehydrogenase. Reported values are the average of ≥3 measurements.

Data set [2] has as its target T1, GcoAB. In words: HPLC quantification of demethylated aromatic product versus NADH consumed. The data set is classed as biochemical, Amycolatopsis sp. ATCC 39116. Details: GST (N, cleaved yes); made in house; host or cells: E. coli Rosetta 2 (DE3). To be noted: saturating substrate, 300 μM NADH, 0.2 μM GcoAB. Here is the method: Analyte analysis of samples was performed on an Agilent 1200 LC system (Agilent Technologies, Santa Clara, CA) equipped with a G1315A diode array detector (DAD). Each sample and standard was injected at a volume of 10 μL onto a Phenomenex Luna C18(2) column 5 μm, 4.6 × 150 mm column (Phenomenex, Torrance, CA). The column temperature was maintained at 30 °C and the buffers used to separate the analytes of interest was 0.05% acetic acid in water (A)/ acetonitrile (B). The separation was carried out using a gradient program of: (A) = 99% and (B) = 1% at time t = 0; (A) = 99% and (B) = 1% at time t = 5, (A) = 50% and (B) = 50% at t = 35 min; (A) = 1% and (B) = 99% at t = 35.01 min; (A) = 99% and (B) = 1% at t = 37.01 min; (A) = 99% and (B) = 1% at t = 47.00 min. The flow rate was held constant at 0.6 mL min^−1 resulting in a run time of 47 min. Calibration curve concentration for each analyte varied between the ranges of 2.5–200 µg L^−1. A DAD wavelength of 225 nm was used for analysis of the analytes of interest. […] A minimum of 3–5 calibration levels was used with an r^2 coefficient of 0.995 or better for each analyte and a check calibration standard (CCS) was analyzed every 10 samples to insure the integrity of the initial calibration.

Another data set concerns the target T2, GcoA (Amycolatopsis sp., UniProt P0DPQ7).
T2 construct: GST (N, cleaved yes); made in house; host or cells: E. coli Rosetta 2 (DE3)
T2 sequence (P0DPQ7 1-407): T1 sequence (P0DPQ7 1-407)
Description: Determination of substrate dissociation constants with GcoA (UV/vis spectral shift titration; fluorescence quenching for vanillin). The data set is classed as binding. Here is the method:
A total of 0–60 µM of substrate analogs, in 0.25 or 0.5 µM aliquots, were titrated into a cuvette containing 1–6 µM GcoA in 25 mM HEPES, 50 mM NaCl, pH 7.5. The spectrum after each substrate addition was recorded, beginning with no substrate bound. The solution reached equilibrium before the next addition. A difference spectrum was made to illustrate the shift from a low-spin aquo-heme complex to the high-spin substrate-bound complex (spectral shift from 417 nm to 388 nm). […] The absorbance at 388 nm was plotted as a function of [substrate], yielding a quadratic curve that was fit to Eq. (7) to determine the KD.7 ΔAbsobs=ΔAbsmax/2EtL0+Et+KD-L0+Et+KD^2-4Et*L0. Where L0, Et, KD, and ΔAbsmax are the ligand concentrations, total protein (subunit) concentration, the equilibrium dissociation constant, and the maximum Abs388–417 nm, respectively. Reported values are the average of 2 or more measurements.
Since the UV/vis spectra of vanillin and heme overlap, fluorescence quenching was monitored to determine the KD. […] Fluorescence emission intensity was followed upon titration of vanillin (0–350 µM) after equilibrium had been established. The % fluorescence quenched, Eq. (8), was plotted as a function of vanillin and fit to Eq. (7) above, replacing ΔAbsmax with ΔFluorescencemax.8 %Fquenched=Fmax-Fintensity/Fmax×100%.

For data set [3], the target named is T1, GcoAB. To be noted: for substrate classification with GcoAB: coupling of NADH consumption to demethylation; for binding or catalytic interaction with GcoA: screen of ten O-methylated aromatic compounds. Here is the method:
The demethylation of guaiacol and substrate analogs was continuously monitored under steady-state conditions. […] A total of 100 µg/mL catalase was added to each reaction to capture any H2O2 formed during the uncoupled reaction. […] A total of 20–300 µM guaiacol (preferred substrate) or an alternate substrate from a 2.5 mM stock dissolved in DMSO was added and the reaction was monitored via measurement of UV/vis spectra for several minutes. […] A plot of vi vs [guaiacol] was fit to Eq. (2) to obtain kcat, KM, and kcat/KM. For specific activity determination, the above method was used but with saturating (300 µM) guaiacol. […] Reported values are the average of ≥3 measurements and reported errors are standard deviations.
Reactions with vanillin were performed in the same manner described above.

Substrate in data set [4]: COc1ccccc1
In words: purified protein, by the assay type. To be noted: other: 0.2 μM GcoAB, 300 μM NADH, pH 7.5, 25 °C, air.

Substrate in data set [5]: CCOc1ccccc1O
Description: purified protein, by the assay type. To be noted: other: 0.2 μM GcoAB, 300 μM NADH, pH 7.5, 25 °C, air.

Substrate in data set [6]: COc1ccccc1C
Description: purified protein, by the assay type. To be noted: other: 0.2 μM GcoAB, 300 μM NADH, pH 7.5, 25 °C, air.

Substrate in data set [7]: COc1ccccc1O
Description: purified protein, by the assay type. As to conditions: other: 0.2 μM GcoAB, 300 μM NADH, pH 7.5, 25 °C, air.

Substrate in data set [8]: COc1cccc(O)c1O
Description: purified protein, by the assay type. As to conditions: other: 0.2 μM GcoAB, 300 μM NADH, pH 7.5, 25 °C, air.

The mark [9] stands for this setting: 1–6 μM GcoA, 25 °C, 25 mM HEPES, 50 mM NaCl, pH 7.5, read-out: Compound KD.

Usually Kd stands for the concentration at which binding is half-saturated. On to `COc1ccccc1C` [2-methylanisole], for which the “Aldehyde produced per NADH consumed” value at GcoAB [1] is given as 0.90 ± 0.1. Moreover, the “Demethylated product: amount produced per NADH consumed” value on GcoAB [2] was determined as 0.20 ± 0.04. Further, on GcoA (setting [9]), the Kd came to 1000 ± 100 nM.
`COc1cccc(O)c1O` [3-methoxycatechol]: the “Aldehyde produced per NADH consumed” value on GcoAB [1] amounted to 0.90 ± 0.04. Moreover, the “Demethylated product: amount produced per NADH consumed” value at GcoAB [2] is reported as 0.97 ± 0.002. In addition, the Kd on GcoA (setting [9]) was 3700 ± 100 nM.
The corresponding values for `COc1ccccc1` [Anisole] are 1.1 ± 0.01, 0.62 ± 0.1 and 1700 ± 200 nM.
As for `CCOc1ccccc1O` [Guaethol], the “reduction in kcat compared to guaiacol” value on GcoAB [3] is listed as “almost fivefold reduction”. In addition, the “Aldehyde produced per NADH consumed” value at GcoAB [1] came out at 1.5 ± 0.14. The “Demethylated product: amount produced per NADH consumed” value at GcoAB [2] stood at 1.4 ± 0.3. Also, the Kd on GcoA (setting [9]) was 70 ± 30 nM.
Broadly, the kcat is the maximal rate divided by the concentration of active sites. In turn, `COc1ccccc1O` [Guaiacol, 2-methoxyphenol] had a specific activity at GcoAB [3] (300 μM guaiacol, 0.2 μM GcoA/B, 300 μM NADH, pH 7.5, 25 °C) of 4.6 mM NADH sec-1 [mM GcoA]-1. Further, the kcat at GcoAB [3] (Supplementary Figure 20, 0.2 μM GcoA/B, 300 μM NADH, ambient O2, pH 7.5, 25 °C) was 6.8 ± 0.5 s⁻¹; on GcoAB [3] (Supplementary Table 4, 0.2 μM GcoA/B, 300 μM NADH, 5-300 μM guaiacol, pH 7.5, 25 °C, air), 6.8 ± 0.5 s⁻¹. For the same molecule, the “Aldehyde produced per NADH consumed” value at GcoAB [1] was 1.2 ± 0.15. Moreover, on GcoAB [2], the “Demethylated product: amount produced per NADH consumed” value was 1.2 ± 0.3. Besides, the dissociation constant Kd at GcoA (setting [9]) amounted to 6 ± 2 nM; on GcoA (binding to GcoA, read-out: KD) it was 6 nM.
In the case of `COc1cccc(OC)c1O` [Syringol], at GcoAB [3], the “substrate classification with GcoAB” value is recorded as “partial substrate, partial uncoupler”. Also, at GcoAB [2], the “Demethylated product: amount produced per NADH consumed” value is on record as 0.21 ± 0.002. In addition, the Kd on GcoA (setting [9]) turned out to be 2800 ± 400 nM.
As for `COc1cc(C=O)ccc1O` [Vanillin], on GcoAB [3], the “substrate classification with GcoAB” value was “partial substrate, partial uncoupler”. The “Aldehyde produced per NADH consumed” value at GcoAB [1] is listed as 0.40 ± 0.04; at GcoAB [1] (listed as vanillin), “less than stoichiometric amounts of formaldehyde”. On GcoAB [2], the “Demethylated product: amount produced per NADH consumed” value is 0.20 ± 0.01. Further, the Kd at GcoA came out at 37000 ± 3000 nM.
Turning to `COc1cc(/C=C/C(=O)O)ccc1O` [ferulate], the “binding or catalytic interaction with GcoA” value on GcoAB [3] is reported as “no detectable binding or catalytic interaction; also recorded: preclude binding and/or demethylation”.
For `COc1ccccc1OC` [veratrole], at GcoAB [3], the “substrate classification with GcoAB” value is listed as “non-substrate/non-binder” and the “binding or catalytic interaction with GcoA” value was “no detectable binding or catalytic interaction”.

B1: GcoAB (Amycolatopsis sp. ATCC 39116) (protein)
chain: T1 sequence (P0DPQ7 1-407)
A word on the Km: it is the substrate concentration at which the rate is half of its maximum. The kcat/Km is the turnover number divided by the Michaelis constant. With B1, the Km in data set [4] was 0.043 ± 0.004 mM; in data set [5], 0.015 ± 0.004 mM; in [6], 0.027 ± 0.003 mM; in [7] it was 0.060 ± 0.01 mM; in [8], 0.030 ± 0.003 mM. Moreover, the kcat in data set [4] came to 3.5 ± 0.2 s⁻¹; in [5], 1.4 ± 0.09 s⁻¹; in data set [6], 4.6 ± 0.1 s⁻¹; in data set [7], 6.8 ± 0.5 s⁻¹; in data set [8], 2.1 ± 0.05 s⁻¹. For the same molecule, the specificity constant (kcat/Km) in data set [4] came to 82000 ± 8000 M⁻¹ s⁻¹; in data set [5], 100000 ± 20000 M⁻¹ s⁻¹; in [6], 170000 ± 20000 M⁻¹ s⁻¹; in data set [7], 110000 ± 20000 M⁻¹ s⁻¹; in [8], 75000 ± 7000 M⁻¹ s⁻¹.
